Experimental data published in patent publication US20240358624A1, “APPLICATION TYPE BODY-CORRECTING-FILM FORMING AGENT” (SHISEIDO COMPANY, LTD., priority 2021, published 2024).
Blank lines part the entries; values can stand above or below the molecule they belong to. Peptide text beside a SMILES is read from it.

Assay: Permeability test with stationary Franz diffusion cell and human skin
Type: in vitro ADME
Description: The intramembrane concentrations of various water-soluble agents in the epidermis and dermis after 24 hours were measured using the following conditions and methods with a stationary Franz diffusion cell and human skin.
• Cell type: Stationary Franz diffusion cell (manufactured by Biocom Systems, Inc.) • Receptor well volume: 3.3 mL • Target skin area: 0.55 cm^2 • Membrane type: Human skin having a thickness of 300 μm (acquired from New York Firefighter's Skin Bank, Science Care, Allosource, or BioIVT) • Number of skin donors: 1 individual • Details of donors: Gender: male or female; age: from 30 to 70 years old; site: thigh or upper torso • Receptor fluid: Phosphate buffered saline (PBS) containing 0.01% w/w NaN3 (preservative)
The concentrations of water-soluble agents were measured in the receptor chamber of the diffusion cell at different time points. At the end of the diffusion test, the skin was sequentially tape-stripped and divided into epidermal and dermal layers. Concentrates of various water-soluble agents in each of the grouped tape strips and epidermal and dermal tissues were extracted using an extraction solvent and analyzed on an Agilent G6120 HPLC system equipped with an LC-MS detector.
The obtained skin was cryopreserved in a freezer at −20° C. until the morning of the test. Before use, the skin was removed from the freezer and completely thawed at room temperature. Only visually intact areas of the skin were used during testing.
The receptor fluid was prepared at the appropriate pH and degassed by filtering the receptor fluid through a ZapCap (registered trademark) CR 0.2 μm membrane while vacuuming.
The diffusion cell was assembled according to (1) to (10) below. […]
Once the cell was assembled and the skin was hydrated for 20 minutes, a tritiated water test was performed to assess the barrier integrity of each skin piece before applying the test sample to the skin. Skin barrier integrity was evaluated according to (a) to (i) below. […]

Skin permeability (dosage form of the second agent is an oil-in-water emulsion composition): skin permeability is further improved
Compound: NCC(=O)NCC(=O)O [glycylglycine] (H-Gly-Gly-OH)

Skin permeability (dosage form of the second agent is a water-in-oil emulsion composition): skin permeability is further improved
Compound: NC(=O)c1cccnc1 [nicotinic acid amide, reference compound]

Compound: COc1ccc(C(=O)[O-])c(O)c1.[K+] [potassium 4-methoxysalicylate]
Distribution in the skin when it permeates the skin (from body-correcting-film forming agent, Table 1): tends to remain in the epidermis
